Assay: gradient 5% acetonitrile 3 min, to 50% in 2 min, to 85% in 15 min, held 3 min, 100 µL/min
Conditions: column: Zorbax Extend-C18 2.1 x 50 mm; eluents: water / acetonitrile, 0.1% formic acid
Summary of the method: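 Standards, all pure, were combined into mixtures of ~100 molecules and run at 100 μL/min on a Zorbax Extend-C18 column (2.1 × 50 mm, 1.8 μm) with water and acetonitrile, each containing 0.1% formic acid. A coupled quadrupole time-of-flight mass spectrometer operated in positive and negative ionization mode. Retention time values come from computationally picked adduct peaks, each inspected manually.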

RP-LC retention time [s]	Compound
1360	Cc1cc(C)c(C)c(S(=O)(=O)N2CCCC2c2nc(-c3cccc(F)c3)no2)c1C (stereo not given)
660	Cn1c(N2CCCN(C(=O)c3ccc(F)c(F)c3)CC2)cc(=O)n(C)c1=O
726	CCC(C)C(NC(=O)c1cccc(OC)c1)C(=O)Nc1nc2ccccc2[nH]1 (stereo not given)
1240	CCOC(=O)c1ccc2nc(C(F)(F)F)nc(NCCc3ccc(OC)cc3)c2c1
765	Cc1ccc2c(Nc3ccc4c(c3)OCO4)c(C(=O)N3CCOCC3)cnc2n1
677	Cc1nnc2c(=O)n(CC(=O)NC(C)c3ccc(F)cc3)c3cccnc3n12 (stereo not given)
824	COc1ccc(NC(=O)C2CCN(c3nnc(-c4ccc(OC)cc4)o3)CC2)cc1
802	O=C(NC1(c2nc(-c3cccnc3)no2)CCCCC1)c1ccoc1
1190	Cc1ccc(N2CC(c3noc(-c4ccc(C)cc4C)n3)CC2=O)cc1 (stereo not given)
1300	COc1ccc(-c2ccnn2-c2ccc(SCc3cccc(F)c3)nn2)cc1
746	COc1cc(-c2nc3ccc(Cl)cn3c2Nc2ccc(Cl)cc2)ccc1O
636	Cc1ccc(-n2nnc(C(=O)O)c2-c2ccncc2)cc1
1270	Cc1ccc(-c2csc(Cc3nc(-c4cccc(F)c4)no3)n2)cc1
989	Cc1cc(C)cc(NC(=O)CSc2nccc(N3CCN(c4cc(C)ccc4C)CC3)n2)c1
779	CCN1C(=O)c2cccnc2Sc2cc(CNC(=O)c3sccc3C)ccc21
654	COc1ccc(CSc2ncnc3nc[nH]c23)cc1
816	Cc1cc(C)n(Cc2nc(-c3ccc(NC(=O)C(C)C)cc3)oc2C)n1
718	Cc1ccccc1-c1cc(C(N)=O)c2ccccc2n1
599	Cc1cc(N2CCC(C)CC2)n2nc(CN3CCN(c4ccccn4)CC3)nc2n1
894	O=C(NCc1ccccc1Br)c1cn2nc(Cl)ccc2n1

RP-LC retention time [s]	Compound
631	CC(C)c1nccn1C1CN(C(=O)CCCc2c[nH]c3ccccc23)C1
981	COc1ccccc1NC(=O)c1cc2c(=O)oc3ccccc3c2n1C
687	O=C(COc1ccc(Cl)cc1Cl)N1CCN(c2ccc3nncn3n2)CC1
1080	CC(C)c1cc(C(=O)Nc2ccccc2)nc2ccnn12
902	Cc1ccnc(Nc2nc(-c3ccc(C)c(C)c3)cs2)c1
651	Cc1ccn2cc(-c3ccc(NS(=O)(=O)c4cccc(F)c4)cc3)nc2n1
724	COc1ccc(Cc2nc(-c3ccc4nnc(C)n4c3)no2)cc1OC
842	COc1cc(F)ccc1-c1ccnc2nc(C(C)C)nn12
1010	CCNC(=O)NC1CCN(c2nc3cccnc3n(Cc3ccc(C)cc3)c2=O)CC1
1280	CCOc1ccc(-c2nc(-c3ccc4oc(CC)nc4c3)no2)cc1
595	Fc1ccc(-c2n[nH]c(C3CCN(Cc4ccoc4)CC3)n2)cc1
807	CSc1cccc(NC(=O)C2CCCN(c3cnc4nc(C)c(C)nc4c3)C2)c1 (stereo not given)
889	COc1ccc(C2(C(=O)N3CCN(S(=O)(=O)c4c(C)nn(C(C)C)c4C)CC3)CC2)cc1
582	COc1ccc2ncc(C(=O)c3ccc(C)cc3)c(N3CCN(C)CC3)c2c1
779	COCc1cc(=O)n(CC(=O)Nc2cccc(OC)c2)c(N2CCOCC2)n1
1230	COc1ccc(Cl)cc1NC(=O)CSc1nc(-c2ccccc2C)ns1
934	CCOC(=O)c1nc(Nc2ccc(C)c(C)c2)c2ccccc2n1
697	CCOc1ccc(OCC)c(S(=O)(=O)Nc2ccc(-c3cn4ccc(C)nc4n3)cc2)c1
904	CCOC(=O)c1c(C)n(CC(=O)OC)c2ccc(OC)cc12
888	O=C1NC2(CCN(C(=O)c3cccc(Cl)c3)CC2)N=C1c1cccc(F)c1

The remaining lines, values behind:

Compound	RP-LC retention time [s]
CCN1CCN(CCNC(=O)c2ccc3c(c2)N(C)C(=O)C2CCCCN32)CC1 (stereo not given)	579
O=C(Cn1cccc1-c1nc(-c2ccccc2)cs1)NCCCN1CCCC1	601
CCNC(=O)N1CCC(c2noc(-c3ccccc3)n2)C1 (stereo not given)	724
CCOC(=O)C(C)Sc1nnc(NC(=O)C2CC2)s1 (stereo not given)	708
OC(CNCc1ccc(-c2ccc(Br)cc2)o1)c1ccccc1 (stereo not given)	755
Cc1ccc(C)c(CNC(=O)C2CCN(c3cncnc3N3CCOCC3)CC2)c1	654
Cn1c(=O)c(N2CCC(C(=O)NCCc3ccco3)CC2)nc2ccccc21	794
Cc1ccc(Cl)cc1N1CCN(C(=O)c2cc3sccc3n2C)CC1	984
Cc1ncsc1C1N(C2CCN(C(=O)c3cnccn3)CC2)C(=O)C12CCCC2 (stereo not given)	654
CC1CCN(c2cc(-n3cnc(C(=O)NC4CCCCC4)c3)ncn2)CC1	1030
O=C(c1ccc(F)c(Cl)c1)N1CCC2(CC1)N=C(c1ccccc1)NO2	800
O=C(Nc1ccc2c(c1)OCCO2)N1CCN(c2cc(-c3ccccc3)ncn2)CC1	645
Cc1ccc(Nc2nc(-c3ccc(C)cc3)c(CC(=O)O)s2)cc1	946
O=C(CCn1cnc2cc(-c3noc(-c4cncc(Br)c4)n3)ccc21)N1CCCCC1	782
CN(C)S(=O)(=O)c1ccc2c(c1)N(CC(=O)NCCc1ccco1)C(=O)C1CCCCN21 (stereo not given)	842
CCN1C(=O)Cc2cc(C(=O)N3CCN(c4ccccc4F)CC3)ccc21	848
COCCOC1CCN(C(=O)c2cccs2)CC1	665
CCC(C)(C)NC(=O)c1cc2c(s1)N(CCOC)CCCC2	1020
Cc1ccccc1-c1noc(Cn2ccn3nc(-c4ccc5c(c4)OCO5)cc3c2=O)n1	1040
O=C(Cn1c(=O)c(=O)n(Cc2ccccc2)c2ncccc21)NCc1ccco1	786
Cc1ccc(CNC(=O)CN2CCc3ccccc3C2C(=O)N2CCC(C)CC2)cc1C (stereo not given)	1030
O=S(=O)(Nc1ccccc1)c1cccnc1Nc1ccc(F)cc1	1020
CC1CCN(CCCNC(=O)c2nnc(-c3ccc(S(=O)(=O)N4CCCC4)cc3)o2)CC1	642
Cc1nn(-c2ccc(C(=O)NCc3cccs3)cc2)c2c1C(=O)CCC2	749
O=C(Nc1ccc2c(c1)CN(C(=O)c1ccccc1)CC2)c1ccc(Br)o1	819

Compound	RP-LC retention time [s]
Cc1ccc2nc(NC(=O)CSc3nc4c(c(=O)n3-c3ccccc3)SCC4)sc2c1	922
CCCN1C(=O)c2c(C(=O)NCc3ccccc3)ncn2CC1(C)C(=O)NCCC(C)C (stereo not given)	817
COc1ccc(S(=O)(=O)C(CNC(=O)c2cccc([N+](=O)[O-])c2C)c2ccco2)cc1 (stereo not given)	664
CNC(=O)CCc1nc2ccccc2n(CC(=O)N2CCOc3ccc(C)cc32)c1=O	728
CCc1nc(-c2csc(S(=O)(=O)N3CCCC(C(=O)NC(C)C)C3)c2)no1 (stereo not given)	865
O=C(NCC1(c2cccs2)CCOCC1)c1cccs1	705
Nc1ncnc(NC2CCCC2)c1[N+](=O)[O-]	679
O=C(Nc1ccccc1)Nc1ccccc1	767
CCc1cc2c3c([nH]c2cc1S(=O)(=O)N1CCN(c2ccccn2)CC1)CC(C)(C)CC3=O	695
CCN1C(=O)c2ccccc2Oc2ccc(C(=O)NCCc3cccs3)cc21	944
CCn1nccc1C(=O)N1CCC2(CC1)C(=O)N(C)c1ccccc12	630
CCS(=O)(=O)N1CC(=O)N(c2ccc(F)cc2C)C(C)(C(=O)NC2CCCC2)C1 (stereo not given)	805
O=C(Cn1nc(C(=O)N2CCCC2)c2ccccc21)N1CCN(Cc2ccc3c(c2)OCO3)CC1	622
CCOc1ccc(NC(=O)N2CCC3(CC2)NC(=O)c2ccccc2N3CC)cc1	785
COCCN1C(=O)[C@H]2CN(Cc3ccccc3)C[C@H]2C1=O	572
Cn1cc(-c2ccccc2)cc1C(=O)N1CCN(C2CCCCC2)CC1	701
O=C(NCCc1ccccc1)N1CCC(OC2CCN(Cc3ccccc3)CC2)CC1	652
O=C(C1CCN(S(=O)(=O)c2cc(-c3noc(C4CC4)n3)cs2)CC1)N1CCCC1	829
CCC1Oc2ccc(S(=O)(=O)N3CCC(C(=O)NC4CCC(C)CC4)CC3)cc2NC1=O (stereo not given)	904
CCOC(=O)Cc1ccc(NC(=O)N2CCC3(CC2)Nc2cc(F)ccc2-n2cccc23)cc1	1000
O=C(NCCOc1ccc(F)cc1)c1ccc(S(=O)(=O)N2CCCC2)cc1	813
CCn1cnc(S(=O)(=O)N2CCCC(C(=O)Nc3cccc(C(F)(F)F)c3)C2)c1 (stereo not given)	871
CC(=O)N1c2ccc(S(=O)(=O)N3CCCC3)cc2CC1C(=O)NCCCc1ccccc1 (stereo not given)	868
CN(C)C(=O)c1cc2c(s1)CCC(C(=O)N1CCN(Cc3ccccc3)CC1)C2 (stereo not given)	556
COc1ccc2[nH]cc(CCNC(=O)c3c(Cl)cccc3Cl)c2c1	774

Reference: the METLIN SMRT retention time set (Domingo-Almenara et al. 2019)
